Experiments:
[1] = test system: gamma carboxylation; settings: cell free system; cited from earlier work
[2] = test system: Chinese hamster ovary (CHO) cells secreting Factor IX; settings: cited from earlier work
[3] = test system: CHO-S cells expressing albumin fused Factor VII; assay: Specific activity of albumin-fused Factor VII expressed in bioreactor culture (Experiment 6); format: cell-based, Chinese hamster; settings: albumin-fused FVII; 50 ng/ml increased daily to 250 ng/ml; MSB n = 4, rMSB n = 25
Protocol: An albumin fused Factor VII was cloned and expressed in CHO-S cells as described in Thromb. Haemost. 2008 April; 99(4):659-67.
Cultivation of mammalian cells occurred under either batch or fed-batch conditions at a starting volume of 3 liters in a 5 liter bioreactor system. Controlled parameters were temperature (37° C.), pH (7.2), agitation (250 rpm) and dissolved oxygen. The medium used was a commercially available, chemically defined media (CD-CHO, Invitrogen) which was supplemented with MSB or rMSP in a starting concentration of 50 ng/ml. Each day the concentration was increased by 50 ng/ml until on day 5 a maximum concentration of 250 ng/ml was reached, which was then held for the remainder of the cultivation period.
The activity of FVII was determined using a chromogenic assay (COASET® FVII test kit (Chromogenix, 82190063)). The amount of protein was determined via reverse phase HPLC.

[4] = test system: CHO-S cell line expressing rIX-FP; assay: Flask productivity assay (Experiment 1): FIX activity, FIX antigen; format: cell-based, Chinese hamster; settings: for Ratio (activity/antigen) / Activity (Factor IX activity) / Antigen (Factor IX antigen): double addition; for Activity (Factor IX activity) / Antigen (Factor IX antigen): 50 ng/ml, mean of duplicate flasks
Protocol: (§1) Cell counts were performed utilising the Innovartis Cedex automated cell counter in accordance with the manufacturers instructions. Glucose, lactate, ammonia and glutamine assays were performed utilising the Yellow Springs Instruments (YSI) 7100 analyser in accordance with the manufacturers instructions. Off-line determination of dissolved carbon dioxide concentrations were performed using the RapidLab 248 Blood Gas Analyser from Siemens (formerly Bayer) in accordance with the manufacturer's instructions. Antigen assay was performed using an internal procedure ELISA for Quantitation of Factor IX Antigen. The Factor IX Activity assay was performed using the “BIOPHEN FIX” chromogenic FIX test. Sampling was performed daily from the point of inoculation for all assays.
The Flask productivity assay was performed as described below.
A CHO-S cell line expressing rIX-FP was used and cultured in an alternative commercially obtainable serum-free chemically defined medium specifically designed for the production of recombinant proteins in CHO cells (“Medium B”) with 8 mM L-glutamine. In the N−1 and N (with N being the last passage number) passage 50 ng/ml MSB was added. Another addition was performed at 48 hours post inoculation. Cultures were inoculated at 2×10^5 viable cells/mL at a 30 mL volume in a 125 mL shake flask, cultured at 37 C, 5% CO2, 125 rpm in a humidified incubator (Multitron, Infors HT). Samples were assayed for cell density, cell viability, rIX-FP activity and antigen content.
Experiment 1 was performed to assess the effect of reduced MSB on culture performance compared to additions of MSB in a flask format. The cells were subjected to the standard flask productivity assay with assays for cell density, Factor IX antigen and Factor IX activity performed.

[5] = test system: rIX-FP CHO-K1 clone; assay: Reactor fed-batch culture (Experiment 2): rIX-FP activity, antigen, cell growth; format: cell-based, Chinese hamster; settings: for Activity (total active produced) / Antigen (total antigen produced) / viable cell densities / growth profile / Ratio (active molecule to antigen): fed-batch; for Activity (total active produced) / Antigen (total antigen produced): Medium A, approx. 4 L; for Activity (total active produced) / Antigen (total antigen produced) / Ratio (active molecule to antigen): up to 192 hour post inoculation; for viable cell densities / growth profile: reduced versus non-reduced MSB
Protocol: The medium used for the propagation was a commercially obtainable serum-free chemically defined medium specifically designed for the production of recombinant proteins in CHO cells: “Medium A”. The clones utilised the Lonza glutamine synthetase (GS) system and were passaged in the absence of glutamine with selection maintained by 25 uM methionine sulfoximine (MSX). In the last culture stage, used for productivity measurement, both glutamine and MSX were not added to the medium.
Vitamin K is essential to the cell for the production of active recombinant Factor IX, due to the Vitamin K-dependent gamma-carboxylation of the molecule. In experiments describing the present invention Vitamin K3 in the form of Menadione sodium bi-sulphate (MSB, Sigma) was chosen as the source of Vitamin K as this form is water soluble and thus readily accessible to the cell. Addition of MSB occurred daily at a concentration of 50 ng/ml.
Due to the inherent unstable nature of the reduced MSB, quantification of exact concentrations of the reduced MSB was not available at the time of experimentation. Therefore all stated concentrations of reduced MSB are calculated values derived from the starting concentration of MSB at the commencement of the reduction process. It is anticipated that the actual reduced MSB concentration is less than the calculated amount due to some small losses occurring through the reduction process.
The reactors were Sartorius/Braun 5 L dished bottom glass reactors, with a single Rushton Impeller for agitation and a ring sparger. All reactor cultures were performed under the following conditions unless otherwise stated.
as §1
Under reactor fed-batch conditions a rIX-FP CHO-K1 clone was cultivated under the standard conditions. This experiment assessed the cell growth, antigen production and active rIX-FP production from the cell under either MSB addition or reduced MSB addition. The feed utilised in this experiment was glucose based (100 g/l) supplemented with the following amino acids: • ? Asparagine at 21.4 g/L; • ? Cysteine at 5.6 g/L; • ? Aspartic acid at 5 g/L.
The reactor test conditions were Reactor A4 utilising a non-reduced MSB addition and Reactor B4 utilising a reduced MSB addition. In both reactors Medium A was used as described in Example 4.

[6] = test system: CHO-S cell line expressing rIX-FP; assay: Flask productivity assay (Experiment 1): FIX activity, FIX antigen; format: cell-based, Chinese hamster; settings: single addition; for Activity (Factor IX activity) / Antigen (Factor IX antigen): 50 ng/ml, mean of duplicate flasks
[7] = test system: CHO-K1 clone A5 (rIX-FP); assay: Extended draw-fill reactor culture (Experiment 3): rIX-FP activity, antigen, cell growth; format: cell-based, Chinese hamster; settings: for Ratio / Activity / Antigen: extended draw-fill; for Activity / Antigen: approx. 7 L
Protocol: as §1
The CHO-K1 clone A5 was cultivated under extended draw-fill conditions with two media, Media A and yet another commercially obtainable serum-free chemically defined medium specifically designed for the production of recombinant proteins in CHO cells: Media C. While comparing the performance of the media, the effect of the addition of MSB or reduced MSB was assessed (Table 5). As with previous experiments the outputs from this investigation were growth parameters of the cell and the production of active rIX-FP molecule and rFIX-FP antigen.

Molecule	promotion of gamma carboxylation [1]	Specific Activity, Mean [3]	Ratio (activity/antigen) ([4]; 72 hours)	Activity (Factor IX activity) ([4]; 72 hours)	Antigen (Factor IX antigen) ([4]; 72 hours)	Ratio (activity/antigen) ([4]; 96 hours)	Activity (Factor IX activity) ([4]; 96 hours)	Antigen (Factor IX antigen) ([4]; 96 hours)	amount of active rIX-FP ([5]; fed-batch conditions)	Activity (total active produced) [5]	Antigen (total antigen produced) [5]	viable cell densities / growth profile [5]	Ratio (active molecule to antigen) [5]	Ratio (activity/antigen) ([6]; 72 hours)	Activity (Factor IX activity) ([6]; 72 hours)	Antigen (Factor IX antigen) ([6]; 72 hours)	Ratio (activity/antigen) ([6]; 96 hours)	Activity (Factor IX activity) ([6]; 96 hours)	Antigen (Factor IX antigen) ([6]; 96 hours)	Ratio ([7]; Medium A)	other results
CC1=CC(=O)c2ccccc2C1=O [menadione, 2-methyl-1,4-naphthoquinone]	inactive in promoting gamma carboxylation	–	–	–	–	–	–	–	–	–	–	–	–	–	–	–	–	–	–	–	–
vitamin K	–	–	–	–	–	–	–	–	–	–	–	–	–	–	–	–	–	–	–	–	concentration in cell culture medium at which requirement to elicit active Factor IX reaches saturation [2]: 5 µg/mL
Reduced Menadione Sodium Bisulphite [rMSB]	–	392.6 IU/mg	0.93	477	514.5	0.71	902	1271	35444 IU	35444 U	38197 U	very similar growth profiles and maximum cell densities	0.93	0.97	500	516	0.86	1070.5	1249	0.66	activity compared with non-reduced MSB additions ([4]; 72 hr): slightly higher than non-reduced MSB additions; activity compared with MSB addition ([4]; 96 hr): greater activity results than that obtained for the MSB addition; antigenic yield ([5]; fed-batch conditions): 38197 IU; antigenic yield as percent of the MSB value ([5]; fed-batch conditions): 77%; increase in active rIX-FP relative to MSB addition ([5]; fed-batch conditions): 59%; cell growth, reduced versus non-reduced MSB ([7]; draw-fill, 50 ng/ml per day): very little difference in relation to cell growth; antigenic material compared to MSB additions ([7]; draw-fill, Medium A): 78%; antigenic material compared to MSB additions ([7]; draw-fill, Medium C): 84%; increase in ratio compared to MSB additions ([7]; draw-fill, depending on media type): 19-35%; Activity ([7]; Medium A, 50 ng/ml per day): 30580 U; Antigen ([7]; Medium A, 50 ng/ml per day): 46254 U; Ratio ([7]; Medium C): 0.62; Activity ([7]; Medium C, 50 ng/ml per day): 24052 U; Antigen ([7]; Medium C, 50 ng/ml per day): 38528 U
Cc1cc(O)c2ccccc2c1O [reduced menadione]	inactive in promoting gamma carboxylation	–	–	–	–	–	–	–	–	–	–	–	–	–	–	–	–	–	–	–	–
CC1(S(=O)(=O)[O-])CC(=O)c2ccccc2C1=O.[Na+] (stereo not shown) [MSB, Menadione sodium bisulphite, reference compound]	–	313.5 IU/mg	0.96	431.5	451.5	0.56	649	1155.5	22357 IU	22357 U	49479 U	very similar growth profiles and maximum cell densities	0.45	0.57	357.5	625.5	0.24	629.5	2573	0.49	activity values as percent of the reduced MSB addition values ([7]; draw-fill, both media types): 94-98%; Activity ([7]; Medium A, 50 ng/ml per day): 28864 U; Antigen ([7]; Medium A, 50 ng/ml per day): 58987 U; Ratio ([7]; Medium C): 0.52; Activity ([7]; Medium C, 50 ng/ml per day): 23570 U; Antigen ([7]; Medium C, 50 ng/ml per day): 45443 U
